According to patent US6531475B1, “CRF receptor antagonists and methods relating thereto” (Neurocrine Biosciences, Inc., priority 1998, dated 2003):
Where two headings read alike, the source gives them in different places.

Biological target: T1, human CRF receptors (Homo sapiens, UniProt P34998)
T1 construct: expressed in transfected cells; stably transfected cells, used as membrane suspension
T1 sequence (P34998 24-415): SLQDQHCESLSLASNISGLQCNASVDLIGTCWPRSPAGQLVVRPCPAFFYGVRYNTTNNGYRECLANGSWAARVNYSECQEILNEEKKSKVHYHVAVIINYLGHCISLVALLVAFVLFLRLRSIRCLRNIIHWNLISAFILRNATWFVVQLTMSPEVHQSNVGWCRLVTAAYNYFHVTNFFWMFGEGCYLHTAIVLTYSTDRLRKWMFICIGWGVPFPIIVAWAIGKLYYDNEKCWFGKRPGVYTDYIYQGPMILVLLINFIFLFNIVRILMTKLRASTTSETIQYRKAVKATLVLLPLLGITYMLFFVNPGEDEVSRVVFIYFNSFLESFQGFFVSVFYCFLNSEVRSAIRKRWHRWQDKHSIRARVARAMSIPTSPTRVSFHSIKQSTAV
Assay: CRF receptor radioligand binding assay (displacement of [125I]tyrosine-ovine CRF)
Settings: cells stably transfected with human CRF receptors, read-out: Ki (CRF receptor binding affinity)
Description: The effectiveness of a compound as a CRF receptor antagonist may be determined by various assay methods. Suitable CRF antagonists of this invention are capable of inhibiting the specific binding of CRF to its receptor and antagonizing activities associated with CRF. A compound of structure (I) may be assessed for activity as a CRF antagonist by one or more generally accepted assays for this purpose, including (but not limited to) the assays disclosed by DeSouza et al. (J. Neuroscience 7:88, 1987) and Battaglia et al. (Synapse 1:572, 1987). […] CRF receptor affinity may be determined by binding studies that measure the ability of a compound to inhibit the binding of a radiolabeled CRF (e.g., [^125I]tyrosine-CFR) to its receptor (e.g., receptors prepared from rat cerebral cortex membranes). The radioligand binding assay described by DeSouza et al. (supra, 1987) provides an assay for determining a compound's affinity for the CRF receptor. Such activity is typically calculated from the IC50 as the concentration of a compound necessary to displace 50% of the radiolabeled ligand from the receptor, and is reported as a “Ki” value calculated by the following equation: [formula]
where L=radioligand and KD=affinity of radioligand for receptor (Cheng and Prusoff, Biochem. Pharmacol. 22:3099, 1973).
With reference to CRF receptor binding affinities, CRF receptor antagonists of this invention have a Ki of less than 10 μM. […] As set forth in greater detail below, the Ki values of representative compounds of this invention were assayed by the methods set forth in Example 9.
The compounds of this invention may be evaluated for binding activity to the CRF receptor by a standard radioligand binding assay as generally described by DeSouza et al. (J. Neurosci. 7:88-100, 1987). By utilizing various radiolabeled CRF ligands, the assay may be used to evaluate the binding activity of the compounds of the present invention with any CRF receptor subtype. Briefly, the binding assay involves the displacement of a radiolabeled CRF ligand from the CRF receptor.
More specifically, the binding assay is performed in 1.5 ml Eppendorf tubes using approximately 1×10^6 cells per tube stably transfected with human CRF receptors. Each tube receives about 0.1 ml of assay buffer (e.g., Dulbecco's phosphate buffered saline, 10 mM magnesium chloride, 20 μM bacitracin) with or without unlabeled sauvagine, urotensin I or CRF (final concentration, 1 μM) to determine nonspecific binding, 0.1 ml of […] tyrosine-ovine CRF (final concentration ˜200 pM or approximately the KD as determined by Scatchard analysis) and 0.1 ml of a membrane suspension of cells containing the CRF receptor. The mixture is incubated for 2 hours at 22° C. followed by the separation of the bound and free radioligand by centrifugation. Following two washes of the pellets, the tubes are cut just above the pellet and monitored in a gamma counter for radioactivity at approximately 80% efficiency. All radioligand binding data may be analyzed using the non-linear least-square curve-fitting program LIGAND of Munson and Rodbard (Anal. Biochem. 107:220, […]).

Cc1cc2c3c(n1)c(-c1ccc(Cl)cc1Cl)nn3CCN2C1CCCc2ccccc21 (stereo not drawn) [I-2a-8] was tested, and the Ki (more preferred compounds) was < 250 nM and the Ki (preferred compounds) was < 1000 nM.

With C=C1CN(C(CCC)CCC)c2nc(C)nc3c2c1cn3-c1ccc(Cl)cc1Cl [I-4b-1] the Ki (more preferred compounds) was < 250 nM and the Ki (preferred compounds) was < 1000 nM.

In the case of CC[C@H]1Cn2nc(-c3ccc(C(F)(F)F)cc3OC)c3nc(C)cc(c32)N1Cc1ccc(F)cc1 [I-2a-76], the Ki (more preferred compounds) is reported as < 250 nM.

With CC[C@H]1Cn2nc(-c3ccc(C(C)C)cc3C(F)(F)F)c3nc(C)cc(c32)N1CC(C)C [I-2a-173] the Ki (preferred compounds) was < 1000 nM.

With CCCC(CCC)N1CC(C)c2cn(-c3ccc(Cl)cc3Cl)c3nc(C)nc1c23 (stereo not drawn) [I-4b-2] the Ki (more preferred compounds) was < 250 nM and the Ki (preferred compounds) was < 1000 nM.

With Cc1cc2c3c(n1)c(-c1ccc(Cl)cc1Cl)nn3CCN2C(C)CCCC(C)C (stereo not drawn) [I-2a-9] the Ki (more preferred compounds) was < 250 nM and the Ki (preferred compounds) was < 1000 nM.

Cc1cc2c3c(n1)c(-c1ccc(Cl)cc1Cl)nn3CCN2C1CCCCC1C (stereo not drawn) [I-2a-6] was tested, and the Ki (more preferred compounds) was < 250 nM.

In the case of COc1cc(C(F)(F)F)ccc1-c1nn2c3c(cc(C)nc13)N(CCC(C)C)[C@@H](C)C2 [i-2a-92], the Ki (preferred compounds) is reported as < 1000 nM.
